Measurements published in BigSolDB 2.1.

Clc1ccc2c(c1)Nc1ccccc1S2
solubility (mole fraction)
Settings | in 2-butanone | in acetone | in acetonitrile | in ethanol | in ethyl acetate | in isopropanol | in methanol | in n-butanol | in n-propanol
283.15 K | 0.0337 | 0.0268 | 0.00354 | 0.00431 | 0.0156 | 0.0038 | 0.00465 | 0.00328 | 0.0041
285.65 K | 0.0356 | 0.0281 | 0.00378 | 0.00446 | 0.0173 | 0.00397 | 0.00483 | 0.00344 | 0.00426
288.15 K | 0.0378 | 0.03 | 0.00406 | 0.00465 | 0.0194 | 0.00415 | 0.00502 | 0.00361 | 0.00446
290.65 K | 0.0402 | 0.0317 | 0.00435 | 0.00486 | 0.0216 | 0.00433 | 0.00525 | 0.00381 | 0.00466
293.15 K | 0.0427 | 0.0336 | 0.00467 | 0.00505 | 0.024 | 0.00454 | 0.00545 | 0.00401 | 0.00487
295.65 K | 0.0455 | 0.0356 | 0.00498 | 0.00525 | 0.0265 | 0.00473 | 0.0057 | 0.00422 | 0.00509
298.15 K | 0.0484 | 0.0378 | 0.00532 | 0.00546 | 0.0291 | 0.00493 | 0.00594 | 0.00445 | 0.0053
300.65 K | 0.0513 | 0.0399 | 0.00564 | 0.00569 | 0.0323 | 0.00513 | 0.0062 | 0.00468 | 0.00552
303.15 K | 0.0546 | 0.0421 | 0.006 | 0.00592 | 0.0357 | 0.00536 | 0.00647 | 0.00492 | 0.00575
305.65 K | 0.0578 | 0.0443 | 0.00633 | 0.00617 | 0.0397 | 0.00556 | 0.00673 | 0.00518 | 0.006
308.15 K | 0.0612 | 0.0469 | 0.00672 | 0.00641 | 0.0435 | 0.0058 | 0.00701 | 0.00543 | 0.00622
310.65 K | 0.0646 | 0.0493 | 0.0071 | 0.00667 | 0.0484 | 0.00605 | 0.00728 | 0.0057 | 0.00649
313.15 K | 0.0683 | 0.0518 | 0.00756 | 0.00695 | 0.0528 | 0.0063 | 0.00758 | 0.00596 | 0.00678
315.65 K | 0.0727 | 0.0544 | 0.00795 | 0.00723 | 0.0575 | 0.00657 | 0.00786 | 0.00624 | 0.00705
318.15 K | 0.0771 | 0.0575 | 0.00837 | 0.00756 | 0.0625 | 0.00687 | 0.00819 | 0.00653 | 0.00737
